The compounds below were run against T1, PARK7 (Homo sapiens, UniProt Q99497) (assay: High-throughput screen of the crude compound library, PARK7 fluorescence polarization (FP) assay with FP reagent JYQ-107). Details: 1.25 µM, crude compound library, FP reagent JYQ-107; read-out: HTS FP assay %Inhibition (1.25 µM).
T1 sequence (Q99497 1-189): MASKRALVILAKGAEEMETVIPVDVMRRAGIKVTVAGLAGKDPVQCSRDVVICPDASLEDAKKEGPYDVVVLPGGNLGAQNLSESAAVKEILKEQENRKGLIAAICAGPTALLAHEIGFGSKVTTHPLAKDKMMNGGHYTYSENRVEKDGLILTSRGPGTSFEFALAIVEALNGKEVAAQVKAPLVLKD
Type: biochemical
With `N#CN1CC[C@@H](C(=O)Nc2nc3c(s2)CN(C(=O)c2ccc(S(=O)(=O)N4CCCCCC4)cc2)CC3)C1` [compound 387] the inhibition at 1.25 µM was 74.8%. With `CN1CCC(C(=O)N2CCc3nc(NC(=O)[C@@H]4CCN(C#N)C4)sc3C2)CC1` [compound 474] the inhibition at 1.25 µM was 72.5%. `Cn1cc(-c2cc(C(=O)N3CCc4nc(NC(=O)[C@@H]5CCN(C#N)C5)sc4C3)no2)cn1` [compound 384] was tested, and the inhibition at 1.25 µM was 83%. Work on `N#CN1CC[C@@H](C(=O)Nc2nc3c(s2)CN(C(=O)c2ccc(Cn4ccccc4=O)o2)CC3)C1` [compound 366] yielded an inhibition at 1.25 µM of 79.5%. `N#CN1CC[C@@H](C(=O)Nc2nc3c(s2)CN(C(=O)CNC(=O)c2ccccc2)CC3)C1` [compound 406] was tested, and the inhibition at 1.25 µM was 82.4%. Work on `Cc1c(Br)cccc1C(=O)N1CCc2nc(NC(=O)[C@@H]3CCN(C#N)C3)sc2C1` [compound 418] yielded an inhibition at 1.25 µM of 81%. `CC(=O)CCCCC(=O)N1CCc2nc(NC(=O)[C@@H]3CCN(C#N)C3)sc2C1` [compound 419] showed an inhibition at 1.25 µM of 74%. For `N#CN1CC[C@@H](C(=O)Nc2nc3c(s2)CN(C(=O)c2ncn(-c4ccccc4)n2)CC3)C1` [compound 355], the inhibition at 1.25 µM was 85.3%. `N#CN1CC[C@@H](C(=O)Nc2nc3c(s2)CN(C(=O)Cc2csc(C4CC4)n2)CC3)C1` [compound 373] was tested, and the inhibition at 1.25 µM was 81.4%. Compound `CN1C(=O)C[C@@H](C(=O)N2CCc3nc(NC(=O)[C@@H]4CCN(C#N)C4)sc3C2)[C@@H]1c1cccnc1` [compound 429] has an inhibition at 1.25 µM of 59.5%. `Cc1cc(OCC(=O)N2CCc3nc(NC(=O)[C@@H]4CCN(C#N)C4)sc3C2)ccc1C(C)C` [compound 393] gave an inhibition at 1.25 µM of 80.3%. Compound `N#CN1CC[C@@H](C(=O)Nc2nc3c(s2)CN(C(=O)c2ccc(N4CCCC4)cc2F)CC3)C1` [compound 451] has an inhibition at 1.25 µM of 82.6%. `N#CN1CC[C@@H](C(=O)Nc2nc3c(s2)CN(C(=O)c2cc(C=O)ccc2O)CC3)C1` [compound 427] showed an inhibition at 1.25 µM of 63.9%. Compound `N#CN1CC[C@@H](C(=O)Nc2nc3c(s2)CN(C(=O)c2ccc(C=O)cc2)CC3)C1` [compound 424] has an inhibition at 1.25 µM of 76.8%. `CC(=O)Oc1ccccc1C(=O)N1CCc2nc(NC(=O)[C@@H]3CCN(C#N)C3)sc2C1` [compound 458] showed an inhibition at 1.25 µM of 67.9%. In the case of `N#CN1CC[C@@H](C(=O)Nc2nc3c(s2)CN(C(=O)C(CCc2ccccc2)c2ccccc2)CC3)C1` (stereo partly shown) [compound 380], the inhibition at 1.25 µM is reported as 80.3%. Compound `CCn1nc(C(C)C)cc1C(=O)N1CCCCC1C(=O)N1CCc2nc(NC(=O)[C@@H]3CCN(C#N)C3)sc2C1` (stereo partly shown) [compound 349] has an inhibition at 1.25 µM of 59.6%. Work on `CN1CCN(c2ccc(C(=O)N3CCc4nc(NC(=O)[C@@H]5CCN(C#N)C5)sc4C3)cc2)CC1` [compound 472] yielded an inhibition at 1.25 µM of 70.8%. `N#CN1CC[C@@H](C(=O)Nc2nc3c(s2)CN(C(=O)c2ccc(B(O)O)cc2)CC3)C1` [compound 407] was tested, and the inhibition at 1.25 µM was 58.7%. `CC(=O)N1CCC(C(=O)N2CCc3nc(NC(=O)[C@@H]4CCN(C#N)C4)sc3C2)CC1` [compound 475] was tested, and the inhibition at 1.25 µM was 68.5%. In the case of `CC(C)(C)OC(=O)NC1(C(=O)N2CCc3nc(NC(=O)[C@@H]4CCN(C#N)C4)sc3C2)CC1` [compound 447], the inhibition at 1.25 µM is reported as 68.7%.

Same assay, conditions: 1.25 µM, crude compound library; read-out: HTS FP assay %Inhibition (1.25 µM)
With `Cn1cc(-c2cc[nH]n2)c(C(=O)N2CCc3nc(NC(=O)[C@@H]4CCN(C#N)C4)sc3C2)n1` [compound 187] the inhibition at 1.25 µM was 59.2%. `N#CN1CC[C@@H](C(=O)Nc2nc3c(s2)CN(C(=O)c2cnc(-c4ccco4)s2)CC3)C1` [compound 104] was tested, and the inhibition at 1.25 µM was 62.8%. Compound `N#CN1CC[C@@H](C(=O)Nc2nc3c(s2)CN(C(=O)c2csc(-c4ccccn4)n2)CC3)C1` [compound 106] has an inhibition at 1.25 µM of 85.1%. Compound `COc1ccccc1N1CC(C(=O)N2CCc3nc(NC(=O)[C@@H]4CCN(C#N)C4)sc3C2)CCC1=O` (stereo partly shown) [compound 327] has an inhibition at 1.25 µM of 70%. `N#CN1CC[C@@H](C(=O)Nc2nc3c(s2)CN(C(=O)c2ccc(Cn4cc(Cl)c(C(F)(F)F)n4)o2)CC3)C1` [compound 289] showed an inhibition at 1.25 µM of 81.4%. Compound `Cn1nccc1[C@@H]1C[C@H]1C(=O)N1CCc2nc(NC(=O)[C@@H]3CCN(C#N)C3)sc2C1` [compound 328] has an inhibition at 1.25 µM of 79.7%. With `N#CN1CC[C@@H](C(=O)Nc2nc3c(s2)CN(C(=O)Cc2ccc(OCCOc4ccccc4)cc2)CC3)C1` [compound 212] the inhibition at 1.25 µM was 85.1%. For `Cc1cc(-c2nc(C)sc2CC(=O)N2CCc3nc(NC(=O)[C@@H]4CCN(C#N)C4)sc3C2)c(C)s1` [compound 100], the inhibition at 1.25 µM was 75.4%. With `N#CN1CC[C@@H](C(=O)Nc2nc3c(s2)CN(C(=O)CC2=NN(c4ncc(C(F)(F)F)cc4Cl)C(=O)C2)CC3)C1` [compound 109] the inhibition at 1.25 µM was 68.1%. Work on `CCc1ccc(C(=O)N2CCC(C(=O)N3CCc4nc(NC(=O)[C@@H]5CCN(C#N)C5)sc4C3)CC2)o1` [compound 294] yielded an inhibition at 1.25 µM of 78.1%. With `N#CN1CC[C@@H](C(=O)Nc2nc3c(s2)CN(C(=O)Cc2csc(-c4cnccn4)n2)CC3)C1` [compound 8] the inhibition at 1.25 µM was 71.4%. In the case of `Cc1ccc(Oc2ccc(C(=O)N3CCc4nc(NC(=O)[C@@H]5CCN(C#N)C5)sc4C3)nc2)cc1` [compound 316], the inhibition at 1.25 µM is reported as 85.7%. `N#CN1CC[C@@H](C(=O)Nc2nc3c(s2)CN(C(=O)c2ccc(N4CCCS4(=O)=O)cc2)CC3)C1` [compound 253] showed an inhibition at 1.25 µM of 85.9%. With `Cn1nc(C(=O)N2CCc3nc(NC(=O)[C@@H]4CCN(C#N)C4)sc3C2)cc1-c1cccnc1` [compound 172] the inhibition at 1.25 µM was 86.7%. Compound `Cc1oc(-c2ccsc2)nc1CC(=O)N1CCc2nc(NC(=O)[C@@H]3CCN(C#N)C3)sc2C1` [compound 343] has an inhibition at 1.25 µM of 74.3%. In the case of `N#CN1CC[C@@H](C(=O)Nc2nc3c(s2)CN(C(=O)C(c2ccccc2)n2cnnn2)CC3)C1` (stereo partly shown) [compound 141], the inhibition at 1.25 µM is reported as 59.5%. `N#CN1CC[C@@H](C(=O)Nc2nc3c(s2)CN(C(=O)CCn2ccc(C(=O)N4CCCC4)n2)CC3)C1` [compound 324] gave an inhibition at 1.25 µM of 64.4%. With `Cc1cc(C(=O)N2CCc3nc(NC(=O)[C@@H]4CCN(C#N)C4)sc3C2)c(C)n1-c1cccnc1` [compound 213] the inhibition at 1.25 µM was 67.7%. `N#CN1CC[C@@H](C(=O)Nc2nc3c(s2)CN(C(=O)C2CCOC4(CCC4)C2)CC3)C1` (stereo partly shown) [compound 136] showed an inhibition at 1.25 µM of 80.8%. `COc1ccc(C(=O)N2CCc3nc(NC(=O)[C@@H]4CCN(C#N)C4)sc3C2)cc1S(=O)(=O)N(C)CCc1cccnc1` [compound 290] gave an inhibition at 1.25 µM of 67.7%. `N#CN1CC[C@@H](C(=O)Nc2nc3c(s2)CN(C(=O)Cc2cccc(OCc4ccccn4)c2)CC3)C1` [compound 74] was tested, and the inhibition at 1.25 µM was 82.1%. For `Cc1cc(C(=O)N2CCc3nc(NC(=O)[C@@H]4CCN(C#N)C4)sc3C2)c(C)n1-c1ccon1` [compound 130], the inhibition at 1.25 µM was 76.2%. `Cc1cc(C(=O)N2CCc3nc(NC(=O)[C@@H]4CCN(C#N)C4)sc3C2)c(C2CC2)s1` [compound 91] gave an inhibition at 1.25 µM of 82.6%. Compound `N#CN1CC[C@@H](C(=O)Nc2nc3c(s2)CN(C(=O)c2ccc(COc4ccccc4Br)cc2)CC3)C1` [compound 123] has an inhibition at 1.25 µM of 67.6%. For `COc1ccccc1-c1nnc(CC(=O)N2CCc3nc(NC(=O)[C@@H]4CCN(C#N)C4)sc3C2)o1` [compound 78], the inhibition at 1.25 µM was 74.3%. Compound `N#CN1CC[C@@H](C(=O)Nc2nc3c(s2)CN(C(=O)c2cccnc2N2CCCCC2)CC3)C1` [compound 167] has an inhibition at 1.25 µM of 69.5%. `N#CN1CC[C@@H](C(=O)Nc2nc3c(s2)CN(C(=O)C2CCCN(S(=O)(=O)c4cccs4)C2)CC3)C1` (stereo partly shown) [compound 288] was tested, and the inhibition at 1.25 µM was 78.6%. `Cc1nc(COc2ccc(C(=O)N3CCc4nc(NC(=O)[C@@H]5CCN(C#N)C5)sc4C3)cc2)no1` [compound 192] showed an inhibition at 1.25 µM of 84.8%. `N#CN1CC[C@@H](C(=O)Nc2nc3c(s2)CN(C(=O)c2ccc(-c4cnco4)cc2)CC3)C1` [compound 171] showed an inhibition at 1.25 µM of 77.5%. `Cc1ccc(NS(=O)(=O)c2cccc(C(=O)N3CCc4nc(NC(=O)[C@@H]5CCN(C#N)C5)sc4C3)c2)cc1` [compound 31] gave an inhibition at 1.25 µM of 83.8%. With `CC1CN(c2ccc(C(=O)N3CCc4nc(NC(=O)[C@@H]5CCN(C#N)C5)sc4C3)cn2)CC(C)O1` (stereo partly shown) [compound 269] the inhibition at 1.25 µM was 85.9%. In the case of `CN(C(=O)c1cccs1)c1ccccc1C(=O)N1CCc2nc(NC(=O)[C@@H]3CCN(C#N)C3)sc2C1` [compound 16], the inhibition at 1.25 µM is reported as 63%. Compound `N#CN1CC[C@@H](C(=O)Nc2nc3c(s2)CN(C(=O)C2CCN(C(=O)CCOc4ccccc4)CC2)CC3)C1` [compound 113] has an inhibition at 1.25 µM of 68.7%. In the case of `CC1CN(S(=O)(=O)c2ccc(C(=O)N3CCc4nc(NC(=O)[C@@H]5CCN(C#N)C5)sc4C3)cc2)CC(C)O1` (stereo partly shown) [compound 307], the inhibition at 1.25 µM is reported as 84.8%. `N#CN1CC[C@@H](C(=O)Nc2nc3c(s2)CN(C(=O)C2CCN2C2CCCC2)CC3)C1` (stereo partly shown) [compound 320] was tested, and the inhibition at 1.25 µM was 64.2%. Work on `Cn1nc(C(=O)N2CCOCC2)cc1C(=O)N1CCc2nc(NC(=O)[C@@H]3CCN(C#N)C3)sc2C1` [compound 134] yielded an inhibition at 1.25 µM of 87.6%. In the case of `Cc1noc(C)c1S(=O)(=O)N1CCCC1C(=O)N1CCc2nc(NC(=O)[C@@H]3CCN(C#N)C3)sc2C1` (stereo partly shown) [compound 259], the inhibition at 1.25 µM is reported as 69.8%. For `Cc1ccc(S(=O)(=O)NCCc2ccc(F)cc2)cc1C(=O)N1CCc2nc(NC(=O)[C@@H]3CCN(C#N)C3)sc2C1` [compound 247], the inhibition at 1.25 µM was 86.9%. `COc1ccc(S(=O)(=O)N(CCC(=O)N2CCc3nc(NC(=O)[C@@H]4CCN(C#N)C4)sc3C2)Cc2ccccc2)cc1` [compound 342] was tested, and the inhibition at 1.25 µM was 85.1%. With `CC1=NN(c2ccc(C(=O)N3CCc4nc(NC(=O)[C@@H]5CCN(C#N)C5)sc4C3)cc2)CC1` [compound 71] the inhibition at 1.25 µM was 69.5%. For `N#CN1CC[C@@H](C(=O)Nc2nc3c(s2)CN(C(=O)CC(NS(=O)(=O)c2ccccc2)c2ccc(Cl)cc2)CC3)C1` (stereo partly shown) [compound 54], the inhibition at 1.25 µM was 80.8%. `Cc1ccc(N2CCCC(C(=O)N3CCc4nc(NC(=O)[C@@H]5CCN(C#N)C5)sc4C3)C2)nc1` (stereo partly shown) [compound 170] showed an inhibition at 1.25 µM of 62.7%. Compound `N#CN1CC[C@@H](C(=O)Nc2nc3c(s2)CN(C(=O)C2Cc4ccccc42)CC3)C1` (stereo partly shown) [compound 179] has an inhibition at 1.25 µM of 81%.
